Consider three compounds from patent US20130196937A1, “AGE PRODUCTION INHIBITOR” (ORYZA OIL & FAT CHEMICAL CO., LTD., priority 2010, published 2013).

Marks after values point to notes of the source that are not given here.

The subject of one test is AGE production. The test is described as follows: Test 1: AGE production inhibition (D-glucose + bovine serum albumin, fluorescence). The class given is biochemical.
Conditions: not given
The method, then:
Put the sample solution ([…]) of the concentration of cherry-blossom extract (Example 1) and cherry-leaf extract (Example 2), as shown in the chart, below, into a phosphate buffer solution (pH: […]) containing D-glucose (10%) and into bovine serum albumin (fraction 5.1%) and leave it out at a temperature of 60 degrees centigrade for two days. Dilute the reaction solution with distilled water until the intensity of fluorescent light reaches about 500, thus determining its intensity (measurement wavelength: […]). Also, the extract is to be diluted with distilled water, and the substance, after being dissolved in DMSO (dimethyl sulphoxide), is to be diluted with a phosphate buffer solution until DMSO concentration is of 1%. Each value in Chart 1 indicates an average value with standard error of the three examples. Asterisks (*, **) mean a significant difference (i.e. *: p<0.05; **: p<0.01) between the processed samples and the unprocessed samples as determined by Dunnett's Multiple Comparison Test.
For the compound `Cl.N=C(N)NN` [Aminoguanidine Hydrochloride, aminoguanidine hydrochloride, reference compound], the “IC50 of AGE production inhibition” value worked out at 138 µg/mL.

For the compound `O=C(/C=C/c1ccccc1)O[C@@H]1OC(CO)[C@@H](O)C(O)C1O` (stereo partly drawn) [1-O-(E)-Cinnamoyl-β-D-glucopyranoside], the “AGE inhibitory activity in words, related compound with less hydroxyl compared with Example 3” value was “reduced” and the “IC50 of AGE production inhibition” value was >300 µg/mL.

Consider `O=C(O)CC(=O)OCC1O[C@@H](Oc2c(-c3ccc(O)cc3)oc3cc(O)cc(O)c3c2=O)C(O)C(O)[C@@H]1O` (stereo partly drawn) [Kaempferol 3-O-(6″-malony)-β-D-glucopyranoside], for which the “IC50 of AGE production inhibition” value was 78 µg/mL.

Staying with this test, now noted: 1 μg/mL.
Turning to `O=C(/C=C/c1ccccc1)O[C@@H]1OC(CO)[C@@H](O)C(O)C1O` (stereo partly drawn) [1-O-(E)-Cinnamoyl-β-D-glucopyranoside], the “Inhibition Ratio (%) of AGE production” value is given as −8.4 ± 0.1%.

Turning to `O=C(O)CC(=O)OCC1O[C@@H](Oc2c(-c3ccc(O)cc3)oc3cc(O)cc(O)c3c2=O)C(O)C(O)[C@@H]1O` (stereo partly drawn) [Kaempferol 3-O-(6″-malony)-β-D-glucopyranoside], the “Inhibition Ratio (%) of AGE production” value is recorded as −5.0 ± 0.1%.

Staying with this test, now noted: 3 μg/mL.
In the case of `O=C(/C=C/c1ccccc1)O[C@@H]1OC(CO)[C@@H](O)C(O)C1O` (stereo partly drawn) [1-O-(E)-Cinnamoyl-β-D-glucopyranoside], the “Inhibition Ratio (%) of AGE production” value is on record as −10.4 ± 0.1%.

For `O=C(O)CC(=O)OCC1O[C@@H](Oc2c(-c3ccc(O)cc3)oc3cc(O)cc(O)c3c2=O)C(O)C(O)[C@@H]1O` (stereo partly drawn) [Kaempferol 3-O-(6″-malony)-β-D-glucopyranoside], the “Inhibition Ratio (%) of AGE production” value is listed as −8.5 ± 0.1%.

Staying with this test, now noted: 10 μg/mL.
`Cl.N=C(N)NN` [Aminoguanidine Hydrochloride, aminoguanidine hydrochloride, reference compound]: the “Inhibition Ratio (%) of AGE production” value was found to be 1.4 ± 0.1%.

Take `O=C(/C=C/c1ccccc1)O[C@@H]1OC(CO)[C@@H](O)C(O)C1O` (stereo partly drawn) [1-O-(E)-Cinnamoyl-β-D-glucopyranoside]: the “Inhibition Ratio (%) of AGE production” value was −10.9 ± 0.4* %.

Regarding `O=C(O)CC(=O)OCC1O[C@@H](Oc2c(-c3ccc(O)cc3)oc3cc(O)cc(O)c3c2=O)C(O)C(O)[C@@H]1O` (stereo partly drawn) [Kaempferol 3-O-(6″-malony)-β-D-glucopyranoside], the “Inhibition Ratio (%) of AGE production” value was 0.2 ± 0.1%.

Still in this test, the particulars now being: 30 μg/mL.
Regarding `Cl.N=C(N)NN` [Aminoguanidine Hydrochloride, aminoguanidine hydrochloride, reference compound], the “Inhibition Ratio (%) of AGE production” value came out at 18.1 ± 1.1%.

Regarding `O=C(/C=C/c1ccccc1)O[C@@H]1OC(CO)[C@@H](O)C(O)C1O` (stereo partly drawn) [1-O-(E)-Cinnamoyl-β-D-glucopyranoside], the “Inhibition Ratio (%) of AGE production” value is given as −7.8 ± 0.1%.

Take `O=C(O)CC(=O)OCC1O[C@@H](Oc2c(-c3ccc(O)cc3)oc3cc(O)cc(O)c3c2=O)C(O)C(O)[C@@H]1O` (stereo partly drawn) [Kaempferol 3-O-(6″-malony)-β-D-glucopyranoside]: the “Inhibition Ratio (%) of AGE production” value is recorded as 20.5 ± 0.3** %.

Staying with this test, now noted: 100 μg/mL.
Regarding `Cl.N=C(N)NN` [Aminoguanidine Hydrochloride, aminoguanidine hydrochloride, reference compound], the “Inhibition Ratio (%) of AGE production” value was 42.6 ± 1.7** %.

Consider `O=C(/C=C/c1ccccc1)O[C@@H]1OC(CO)[C@@H](O)C(O)C1O` (stereo partly drawn) [1-O-(E)-Cinnamoyl-β-D-glucopyranoside], for which the “Inhibition Ratio (%) of AGE production” value is 5.7 ± 0.1%.

As for `O=C(O)CC(=O)OCC1O[C@@H](Oc2c(-c3ccc(O)cc3)oc3cc(O)cc(O)c3c2=O)C(O)C(O)[C@@H]1O` (stereo partly drawn) [Kaempferol 3-O-(6″-malony)-β-D-glucopyranoside], the “Inhibition Ratio (%) of AGE production” value is 50.8 ± 0.4** %.

The same test, now with this note: 300 μg/mL.
With `Cl.N=C(N)NN` [Aminoguanidine Hydrochloride, aminoguanidine hydrochloride, reference compound], the “Inhibition Ratio (%) of AGE production” value was 67.7 ± 1.6** %.

Turning to `O=C(/C=C/c1ccccc1)O[C@@H]1OC(CO)[C@@H](O)C(O)C1O` (stereo partly drawn) [1-O-(E)-Cinnamoyl-β-D-glucopyranoside], the “Inhibition Ratio (%) of AGE production” value is 23.3 ± 0.4** %.

Take `O=C(O)CC(=O)OCC1O[C@@H](Oc2c(-c3ccc(O)cc3)oc3cc(O)cc(O)c3c2=O)C(O)C(O)[C@@H]1O` (stereo partly drawn) [Kaempferol 3-O-(6″-malony)-β-D-glucopyranoside]: the “Inhibition Ratio (%) of AGE production” value is 91.7 ± 1.7** %.

Another test deals with normal diploid fibroblast (PDL22-32 cells). Description: Test 2-2: fibroblast apoptosis caused by CML-collagen (Caspase Assay), extracts and substances. The class given is cell-based, human.
Conditions: not given
How it is done:
50 mg of 1 mM HCL was added to 25 mL of bovine skin-derived collagen and dissolved for two hours incubation at the temperature of 37 degrees centigrade, and was shaken as needed. Then, PBS (pH7.4 25 mL) was added to sodium cyanoborohydride (1.42 g) and to glyoxylic acid (0.9 g) and mixed so as to react at the temperature of 37 degrees centigrade for 24 hours. The reaction solution was then put into a dialysis cell of 10,000 molecular mass for a dialysis-with-water test to be conducted for one day and for a dialysis-with-PBS to be conducted for six days. CML-collagen (21 mg) was obtained by freeze-drying the dialysate.
The fibroblast (7×10^4 cells) was suspended in the D-MEM medium containing FCS (0.5%), penicillin (100 units/mL) and streptomycin ([…]) to be seeded within 96-well plates ([…]). After 24 hours of culture, the dissolved CML-collagen solution (2 mg·mL) and the sample solution ([…]) were added to the medium and cultured for 24 hours. Collagen, instead of CML-collagen, was added to Normal group.
The rate of cell survival was measured by MIT Assay. The result is shown in Chart 2. At the same time, a microscopic test was done, of which the result of formazan formation of fibroblast (×100) is shown in FIG. 2. Apoptosis was identified by measuring active caspase-3/7 by the fluorescence method, of which the result is shown in Chart 3, below. Each value of Charts 2 and 3 is indicated by the average value with standard error of the six examples. Asterisks (*, **) mean a significant difference (i.e. *: p<0.05; **: p<0.01) between the unprocessed samples and Dunnett's multiple comparison test, and f represents p<0.05 by Fisher's PLSD Test.
Here, in Test 2-2, respecting the cherry-blossom extract (Example 1), and the cherry-leaf extract (Example 2) and the seven substances contained in the cherry-blossom extract (Example 1): 1-O-(E)-Caffeoyl-β-D-glucopyranoside, 1-O-(E)-Coumaroyl-β-D-Glucopyranosideand, 1-O-(E)-Cinnamoyl-β-D-glucopyranoside, Kaempferol 3-O-3-D-glucopyranoside, Quercetin 3-O-β-D-glucopyranoside, Kaempferol 3-O-(6″-malony)-β-D-glucopyranoside and Quercetin 3-O-(6″-malony)-β-D-glucopyranoside (Examples 3 to 9), the activity against fibroblast apoptosis, caused by CML-collagen, was identified in the same way as in Test 2-1.
Also, in Test 2-2, PDL22-32 cells were used as the normal diploid fibroblast. As a target for comparison, aminoguanidine hydrochloride which is a medicine for the glycation inhibitor was examined in the same way. Each value of Chart 4 indicates an average value with standard error of the five examples. Asterisks (*, **) mean a significant difference (i.e. *: p<0.05; **: p<0.01) between processed samples and unprocessed samples with CML-collagen, determined by Dunnett's Multiple Comparison Test.
Turning to `O=C(O)CC(=O)OCC1O[C@@H](Oc2c(-c3ccc(O)cc3)oc3cc(O)cc(O)c3c2=O)C(O)C(O)[C@@H]1O` (stereo partly drawn) [Kaempferol 3-O-(6″-malony)-β-D-glucopyranoside], the “inhibitory activity against apoptosis caused by CML-collagen, result in words” value is recorded as “relatively weak activity”.

Still in this test, the particulars now being: 1 μg/mL.
For `O=C(/C=C/c1ccccc1)O[C@@H]1OC(CO)[C@@H](O)C(O)C1O` (stereo partly drawn) [1-O-(E)-Cinnamoyl-β-D-glucopyranoside], the “Inhibition Ratio (%) of fibroblast apoptosis (Caspase Assay)” value (“Inhibition Ratio (%) … (Caspase Assay)” below) was −11.8 ± 0.3%.

Regarding `O=C(O)CC(=O)OCC1O[C@@H](Oc2c(-c3ccc(O)cc3)oc3cc(O)cc(O)c3c2=O)C(O)C(O)[C@@H]1O` (stereo partly drawn) [Kaempferol 3-O-(6″-malony)-β-D-glucopyranoside], the “Inhibition Ratio (%) … (Caspase Assay)” value is −18.9 ± 0.6%.

Staying with this test, now noted: 3 μg/mL.
Regarding `O=C(/C=C/c1ccccc1)O[C@@H]1OC(CO)[C@@H](O)C(O)C1O` (stereo partly drawn) [1-O-(E)-Cinnamoyl-β-D-glucopyranoside], the “Inhibition Ratio (%) … (Caspase Assay)” value is recorded as 19.7 ± 0.9%.

Take `O=C(O)CC(=O)OCC1O[C@@H](Oc2c(-c3ccc(O)cc3)oc3cc(O)cc(O)c3c2=O)C(O)C(O)[C@@H]1O` (stereo partly drawn) [Kaempferol 3-O-(6″-malony)-β-D-glucopyranoside]: the “Inhibition Ratio (%) … (Caspase Assay)” value was −17.3 ± 0.6%.

Still in this test, the particulars now being: 10 μg/mL.
Take `O=C(/C=C/c1ccccc1)O[C@@H]1OC(CO)[C@@H](O)C(O)C1O` (stereo partly drawn) [1-O-(E)-Cinnamoyl-β-D-glucopyranoside]: the “Inhibition Ratio (%) … (Caspase Assay)” value amounted to 48.6 ± 2.9%.

Consider `O=C(O)CC(=O)OCC1O[C@@H](Oc2c(-c3ccc(O)cc3)oc3cc(O)cc(O)c3c2=O)C(O)C(O)[C@@H]1O` (stereo partly drawn) [Kaempferol 3-O-(6″-malony)-β-D-glucopyranoside], for which the “Inhibition Ratio (%) … (Caspase Assay)” value worked out at 10.5 ± 0.5%.

Staying with this test, now noted: 100 μg/mL.
On to `Cl.N=C(N)NN` [Aminoguanidine Hydrochloride, aminoguanidine hydrochloride, reference compound], for which the “Inhibition Ratio (%) … (Caspase Assay)” value is given as 104.8 ± 34* %.

The test system of the next test is NB1 RGB fibroblast. Description: Test 3: collagen grating formation of fibroblast glycosylated by glyoxal. The class given is cell-based, human.
Conditions: not given
How it is done: When fibroblast is cultured in the presence of collagen solution, collagen grating formation can be identified. In a similar test, when adding fibroblast that has been glycosylated by the intermediate product of glycation (glyoxal), it is known that the collagen grating formation is inhibited.
The infant-derived NB1 RGB (passage number 22) was suspended in the D-MEM complete media (1.86×10^4 cells/mL). 15 mL each of it was seeded within each cell-culture dish of 14 cm in diameter. After 24 hours, each sample and glyoxal were added until the molecular mass of each dish became […] and incubate the dishes for five days.
Bovine skin-derived collagen (25 mg) was dissolved in 0.1% acetic acid (8.3 mL). Then, a 10-times concentration of Hanks solution ([…]) was added. Then, 0.1% acetic acid (3.5 mL) was added. 1M NaOH was added to neutralize the solution, which was sterilized by filteration to obtain the collagen solution.
The mixed solution of collected fibroblast (5.4×10^4 cell) was suspended in FCS ([…]), and collagen ([…]) was seeded within a 24-well cell-culture plate and allowed to culture for 24 hours and 48 hours. Each culture was observed through a microscope and by the naked eye. For the purpose of comparison, aminoguanidin hydrochloride which is an anti-glycation agent was also examined in the same way.
Consider `Cl.N=C(N)NN` [Aminoguanidine Hydrochloride, aminoguanidine hydrochloride, reference compound], for which the “fibroblast shape, microscopic image after 24 hours of culture (FIG. 4)” value was “spherically shaped”.

Staying with this test, now noted: 100 mg/mL, with glyoxal.
As to `Cl.N=C(N)NN` [Aminoguanidine Hydrochloride, aminoguanidine hydrochloride, reference compound], the “amount of collagen grating formation (naked eye, FIG. 3), compared to the control group” value is recorded as “showed no increase in the amount of grating formation”.
